Data as given in ChEMBL document CHEMBL1909046, “DrugMatrix in vitro pharmacology data”.

Assays:
[1] = DRUGMATRIX: Glutamate, NMDA, Agonism radioligand binding (ligand: [3H] CGP-39653); format: cell membranes, Rattus norvegicus, Wistar, Cerebral cortex, Membrane; conditions: Not Active = under 50% inhibition at 10 µM
Cytochrome P450 2A6 = target: T1, Cytochrome P450 2A6 (Homo sapiens, UniProt P11509); conditions: bti-tn-5b1-4; note: in other assays of this panel Not Active means under 50% inhibition at 10 µM
T1 sequence (P11509 whole entry): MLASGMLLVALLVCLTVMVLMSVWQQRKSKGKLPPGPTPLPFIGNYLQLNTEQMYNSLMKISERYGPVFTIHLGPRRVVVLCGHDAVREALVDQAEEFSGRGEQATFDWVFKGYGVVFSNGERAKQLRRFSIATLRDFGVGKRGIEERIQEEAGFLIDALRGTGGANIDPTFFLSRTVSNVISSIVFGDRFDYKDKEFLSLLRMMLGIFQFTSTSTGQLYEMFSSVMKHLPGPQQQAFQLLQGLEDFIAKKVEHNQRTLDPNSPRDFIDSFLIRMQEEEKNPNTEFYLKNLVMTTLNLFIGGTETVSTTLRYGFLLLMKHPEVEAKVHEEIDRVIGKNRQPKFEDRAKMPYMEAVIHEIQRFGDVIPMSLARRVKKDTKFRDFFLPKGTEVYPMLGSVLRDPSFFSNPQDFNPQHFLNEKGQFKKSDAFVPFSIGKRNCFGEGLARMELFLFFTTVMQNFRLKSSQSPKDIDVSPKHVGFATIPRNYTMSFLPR

[2] = DRUGMATRIX: Purinergic P2X radioligand binding (ligand: [3H] alpha, beta-Methylene-ATP); format: cell membranes, Oryctolagus cuniculus, New Zealand albino, Urinary bladder, Membrane; conditions: Not Active = under 50% inhibition at 10 µM
[3] = target: T2, 5-hydroxytryptamine receptor 1A (Rattus norvegicus, UniProt P19327); format: cell membranes, CHO-K1, Membrane; conditions: cho-k1; note: in other assays of this panel Not Active means under 50% inhibition at 10 µM
T2 sequence (P19327 whole entry): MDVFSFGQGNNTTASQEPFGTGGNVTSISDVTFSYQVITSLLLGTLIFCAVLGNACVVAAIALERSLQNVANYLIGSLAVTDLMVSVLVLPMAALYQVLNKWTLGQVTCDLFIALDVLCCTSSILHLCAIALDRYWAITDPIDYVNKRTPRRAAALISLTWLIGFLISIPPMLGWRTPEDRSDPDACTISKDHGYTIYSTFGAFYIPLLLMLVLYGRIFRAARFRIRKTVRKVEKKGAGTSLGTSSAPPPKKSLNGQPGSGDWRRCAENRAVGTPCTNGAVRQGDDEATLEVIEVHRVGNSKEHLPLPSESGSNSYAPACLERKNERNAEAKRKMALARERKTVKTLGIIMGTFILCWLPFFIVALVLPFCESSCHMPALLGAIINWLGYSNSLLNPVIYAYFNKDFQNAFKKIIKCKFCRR

Cannabinoid receptor 1 = Cannabinoid receptor 1 (Homo sapiens, UniProt P21554); format: cell membranes, Chem-1, Membrane; conditions: chem-1; note: in other assays of this panel Not Active means under 50% inhibition at 10 µM
[4] = target: Kappa-type opioid receptor (Homo sapiens, UniProt P41145); experiment: DRUGMATRIX: Opiate kappa (OP2, KOP) radioligand binding (ligand: [3H] Diprenorphine); format: cell membranes, HEK293, Membrane; conditions: hek293; Not Active = under 50% inhibition at 10 µM
[5] = target: T3, Polyunsaturated fatty acid lipoxygenase ALOX15 (Oryctolagus cuniculus, UniProt P12530); experiment: biochemical; format: tissue-based, Reticulocytes; conditions: reticulocytes;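 note: inhibition of 15-lipoxygenase enzyme activity measured with linoleic acid as the substrate; in other assays of this panel Not Active means under 50% inhibition at 10 µM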
T3 sequence (P12530 whole entry): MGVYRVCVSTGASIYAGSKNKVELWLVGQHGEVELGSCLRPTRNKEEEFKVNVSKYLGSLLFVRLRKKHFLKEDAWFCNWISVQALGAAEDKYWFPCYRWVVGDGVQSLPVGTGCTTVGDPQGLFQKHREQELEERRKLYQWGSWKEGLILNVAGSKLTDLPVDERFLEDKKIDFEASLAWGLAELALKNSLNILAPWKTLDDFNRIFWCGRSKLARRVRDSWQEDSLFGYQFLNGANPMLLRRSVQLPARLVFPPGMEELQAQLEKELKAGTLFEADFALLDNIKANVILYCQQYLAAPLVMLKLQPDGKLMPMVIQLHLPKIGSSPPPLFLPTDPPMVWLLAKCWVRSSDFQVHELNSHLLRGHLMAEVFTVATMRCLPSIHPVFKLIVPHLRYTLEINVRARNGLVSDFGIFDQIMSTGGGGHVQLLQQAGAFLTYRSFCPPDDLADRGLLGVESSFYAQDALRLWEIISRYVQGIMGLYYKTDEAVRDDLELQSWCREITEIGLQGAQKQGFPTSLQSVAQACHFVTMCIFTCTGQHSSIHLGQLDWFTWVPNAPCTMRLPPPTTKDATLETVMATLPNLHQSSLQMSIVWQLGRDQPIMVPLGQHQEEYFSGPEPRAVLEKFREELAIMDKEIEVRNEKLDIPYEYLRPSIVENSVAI

Sequence of Cannabinoid receptor 1 (P21554 whole entry): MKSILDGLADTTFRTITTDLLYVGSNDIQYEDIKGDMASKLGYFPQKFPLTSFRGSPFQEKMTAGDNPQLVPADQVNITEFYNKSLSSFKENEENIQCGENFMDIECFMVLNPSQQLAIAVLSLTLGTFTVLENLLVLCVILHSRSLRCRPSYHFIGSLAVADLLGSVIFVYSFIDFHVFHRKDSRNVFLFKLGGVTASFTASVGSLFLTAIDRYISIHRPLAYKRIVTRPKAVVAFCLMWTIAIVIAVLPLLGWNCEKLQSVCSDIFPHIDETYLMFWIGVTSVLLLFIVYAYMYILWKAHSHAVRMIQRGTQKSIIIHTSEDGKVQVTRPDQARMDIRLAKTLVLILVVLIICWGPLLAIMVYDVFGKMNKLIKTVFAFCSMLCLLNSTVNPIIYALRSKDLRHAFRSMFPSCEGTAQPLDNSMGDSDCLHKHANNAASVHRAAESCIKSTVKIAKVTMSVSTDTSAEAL
Sequence of Kappa-type opioid receptor (P41145 whole entry): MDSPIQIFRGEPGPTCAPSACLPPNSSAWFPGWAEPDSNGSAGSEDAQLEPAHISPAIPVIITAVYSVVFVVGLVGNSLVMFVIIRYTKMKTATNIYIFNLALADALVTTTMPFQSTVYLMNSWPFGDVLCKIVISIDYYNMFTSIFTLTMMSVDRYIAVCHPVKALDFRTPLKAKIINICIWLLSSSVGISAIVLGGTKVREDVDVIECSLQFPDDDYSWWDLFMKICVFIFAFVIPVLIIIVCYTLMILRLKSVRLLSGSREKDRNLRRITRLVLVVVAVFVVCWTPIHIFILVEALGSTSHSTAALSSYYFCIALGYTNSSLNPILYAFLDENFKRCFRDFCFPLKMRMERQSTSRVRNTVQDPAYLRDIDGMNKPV

O=C1c2ccccc2C(=O)C1c1ccccc1 [PHENINDIONE]
Not Active: IC50 [1] | Ki [1] | IC50 (Cytochrome P450 2A6) | Ki (Cytochrome P450 2A6) | IC50 [2] | Ki [2] | IC50 [3] | IC50 (Cannabinoid receptor 1) | IC50 [4] | IC50 [5]

NC(=O)NC(=O)Cc1ccccc1 [PHENACEMIDE]
Not Active: IC50 [1] | Ki [1] | IC50 (Cytochrome P450 2A6) | Ki (Cytochrome P450 2A6) | IC50 [2] | Ki [2] | IC50 [3] | IC50 (Cannabinoid receptor 1) | IC50 [4] | IC50 [5]

O=C(NCCN1CCOCC1)c1ccc(Cl)cc1 [MOCLOBEMIDE]
Not Active: IC50 [1] | Ki [1] | IC50 (Cytochrome P450 2A6) | Ki (Cytochrome P450 2A6) | IC50 [2] | Ki [2] | IC50 [3] | IC50 (Cannabinoid receptor 1) | IC50 [4] | IC50 [5]

OC[C@H]1O[C@@H]2O[C@H]3[C@H](O)[C@@H](O)[C@@H](O[C@H]4[C@H](O)[C@@H](O)[C@@H](O[C@H]5[C@H](O)[C@@H](O)[C@@H](O[C@H]6[C@H](O)[C@@H](O)[C@@H](O[C@H]7[C@H](O)[C@@H](O)[C@@H](O[C@H]1[C@H](O)[C@H]2O)O[C@@H]7CO)O[C@@H]6CO)O[C@@H]5CO)O[C@@H]4CO)O[C@@H]3CO [ALFADEX]
Not Active: IC50 [1] | Ki [1] | IC50 (Cytochrome P450 2A6) | Ki (Cytochrome P450 2A6) | IC50 [2] | Ki [2] | IC50 [3] | IC50 (Cannabinoid receptor 1) | IC50 [4] | IC50 [5]

O=c1[nH]c2ccccc2c2ccccc12
Not Active: IC50 [1] | Ki [1] | IC50 (Cytochrome P450 2A6) | Ki (Cytochrome P450 2A6) | IC50 [2] | Ki [2] | IC50 [3] | IC50 (Cannabinoid receptor 1) | IC50 [4] | IC50 [5]

CCC1(c2ccccc2)C(=O)NC(=O)NC1=O [PHENOBARBITAL]
Not Active: IC50 [1] | Ki [1] | IC50 (Cytochrome P450 2A6) | Ki (Cytochrome P450 2A6) | IC50 [2] | Ki [2] | IC50 [3] | IC50 (Cannabinoid receptor 1) | IC50 [4] | IC50 [5]

Nc1ccc(C(=O)O)c(O)c1 [AMINOSALICYLIC ACID]
Not Active: IC50 [1] | Ki [1] | IC50 (Cytochrome P450 2A6) | Ki (Cytochrome P450 2A6) | IC50 [2] | Ki [2] | IC50 [3] | IC50 (Cannabinoid receptor 1) | IC50 [4] | IC50 [5]
